According to patent US11242351B2, “Tricyclic inhibitors of the BCL6 BTB domain protein-protein interaction and uses thereof” (priority 2017, dated 2022):
pEC50, pIC50, pKd: −log10 of the molar value. Where two headings read alike, the source gives them in different places.

Legend:
[1] = biological target: BCL6 BTB domain (biotin-thrombin-BCL6 amino acids 1-129) (Homo sapiens (Human), UniProt P41182); assay: Surface Plasmon Resonance (SPR) assay; format: binding; conditions: Biacore T200, single cycle kinetic analysis
Experimental: Surface Plasmon Resonance (SPR) Assay
SPR studies were performed using a Biacore™ T200 instrument (GE Health Sciences Inc.). […] The Biacore flow rate was set at 100 μl/min. […] Curve fitting and KD calculations were performed with the Biacore T200 Evaluation software (GE Health Sciences Inc).

[2] = test system: BCL6 reporter construct in SuDHL4-3×BCL6-TK-Luc cells; assay: Cell-based luciferase assay (BCL6 reporter); conditions: 48 h, read-out: Luc IC50
Experimental: Cell-Based Luciferase Assay:
A BCL6 reporter construct containing three copies of the consensus BCL6 binding site, the TK promoter, and the firefly luciferase gene was stably expressed in SuDHL4 cells after lentivirus infection and selection with Blasticidin. SuDHL4-3×BCL6-TK-Luc cells were seeded into a Viewplate 384-well assay dish at 15,000 cells/well in […] (Alpha-MEM high glucose containing 10% FBS, 25 mM HEPES, […] GlutaMAX, 100 µg/mL Normocin, and […] Gentamycin, Invitrogen). A HP D300 digital dispenser was used to dose cells with DMSO or test compounds across a 10-point range of concentrations (high dose of 10 μM), and cultures were grown in a humidified 5% CO2 incubator at 37° C. After two days, plates were removed from the incubator and equilibrated to room temperature. An equal volume of neolite reporter gene assay reagent was added to each well, and samples were processed according to the manufacturer's instructions (Perkin Elmer). The luminescent signal was measured using an Envision plate reader equipped with a US-Luminescence detector.

Karpas422 cells = assay: Tumor cell growth inhibition assay; format: cell-based; conditions: Homo sapiens, KARPAS-422, 144 h, read-out: GI Karpas EC50
Experimental: Tumor Cell Growth Inhibition Assay:
Karpas422 cells were seeded into a 96-well plate at 2,000 cells/well in 150 μl medium (Alpha-MEM containing 10% FBS, […] Normocin, and […] Gentamycin, Invitrogen). A HP D300 digital dispenser was used to dose cells with DMSO or test compounds across a 10-point range of concentrations (high dose of 5 μM), and cultures were grown in a humidified 5% CO2 incubator at 37° C. After six days, plates were removed from incubator and equilibrated to room temperature. An equal volume of ATPlite assay reagent was added to each well, and samples were processed according to the manufacturer's instructions (Perkin Elmer). The luminescent signal was measured using an Envision plate reader equipped with a US-Luminescence detector.

[3] = SuDHL4-3×BCL6-TK-Luc cells, two days
[4] = Karpas422 cells, six days, ATPlite

## C[C@H]1CN(C)CCN1c1cc(NC(=O)Cn2cc(-c3cc(C(N)=O)c(O)c(Cl)c3F)c3c(=O)n4c(nc32)CCC4)c(Cl)c(F)n1 [I-10, (S)-3-chloro-5-(1-(2-((3-chloro-6-(2,4-dimethylpiperazin-1-yl)-2-fluoropyridin-4-yl)amino)-2-oxoethyl)-4-oxo-4,6,7,8-tetrahydro-1H-dipyrrolo[1,2-a:2′,3′-d]pyrimidin-3-yl)-4-fluoro-2-hydroxy-benzamide]
[1]
  pKd: 7.30
[2]
  pIC50: 6.35
Karpas422 cells
  pEC50: 6.38

## C[C@H]1COCCN1c1cc(NC(=O)Cn2cc(-c3cc(C(N)=O)c(O)c4c3OCO4)c3c(=O)n4c(nc32)CCC4)c(Cl)cn1 [I-85, (S)-7-(1-(2-((5-chloro-2-(3-methylmorpholino)pyridin-4-yl)amino)-2-oxoethyl)-4-oxo-4,6,7,8-tetrahydro-1H-dipyrrolo[1,2-a:2′,3′-d]pyrimidin-3-yl)-4-hydroxybenzo[d][1,3] dioxole-5-carboxamide]
[1]
  pKd: 8.79
[2]; [3]
  pIC50: 7.81
Karpas422 cells; [4]
  pEC50: 7.53

## C[C@H]1COCCN1c1cc(NC(=O)Cn2cc(-c3cc(Cl)c(O)c(C(N)=O)c3)c3c(=O)n4c(nc32)CCC4)c(Cl)c(F)n1 [I-62, (S)-3-chloro-5-(1-(2-((3-chloro-2-fluoro-6-(3-methylmorpho-lino)pyridin-4-yl)amino)-2-oxoethyl)-4-oxo-4,6,7,8-tetra-hydro-1H-dipyrrolo [1,2-a:2′,3′-d]pyrimi-din-3-yl)-2-hydroxybenzamide]
[1]
  pKd: 8.14
[2]; [3]
  pIC50: 7.11
Karpas422 cells; [4]
  pEC50: 7.51

## CC1Cc2nc3c(c(-c4cc(C(N)=O)c(O)c(F)c4F)cn3CC(=O)Nc3cc(N4CCN(C)C[C@@H]4C)nc(F)c3Cl)c(=O)n2C1 (stereo partly drawn) [I-63, 5-(1-(2-((3-chloro-6-((S)-2,4-dimethyl-piperazin-1-yl)-2-fluoropyridin-4-yl)amino)-2-oxoethyl)-7-methyl-4-oxo-4,6,7,8-tetrahydro-1H-dipyrrolo[1,2-a:2′,3′-d]pyrimidin-3-yl)-3,4-difluoro-2-hydroxy-benzamide]
[1]
  pKd: 7.99
[2]; [3]
  pIC50: 6.96
Karpas422 cells; [4]
  pEC50: 6.92

## COc1c(-c2cn(CC(=O)Nc3cc(N4CCN(C)C[C@@H]4C)nc(F)c3Cl)c3nc4n(c(=O)c23)CCC4)cc(C(N)=O)c(O)c1Cl [I-95, (S)-3-chloro-5-(1-(2-((3-chloro-6-(2,4-dimethylpiperazin-1-yl)-2-fluoropyridin-4-yl)amino)-2-oxo-ethyl)-4-oxo-4,6,7,8-tetrahydro-1H-dipyrrolo[1,2-a:2′,3′-d]pyrimidin-3-yl)-2-hydroxy-4-methoxy-benzamide]
[1]
  pKd: 6.35
[2]
  pIC50: 6.00
Karpas422 cells
  pEC50: 6.06

## C[C@H]1COCCN1c1cc(NC(=O)Cn2cc(-c3cc(C(N)=O)c(O)c(F)c3F)c3c(=O)n4c(nc32)CCC4)c(Cl)cn1 [I-3, (S)-5-(1-(2-((5-chloro-2-(3-methylmorpho-lino)pyridin-4-yl)amino)-2-oxoethyl)-4-oxo-4,6,7,8-tetrahydro-1H-dipyrrolo[1,2-a:2′,3′-d]pyrimidin-3-yl)-3,4-difluoro-2-hydroxy-benzamide]
[1]
  pKd: 7.60
[2]; [3]
  pIC50: 6.15
Karpas422 cells; [4]
  pEC50: 6.30

## NC(=O)c1cc(-c2cn(CC(=O)Nc3cc(N4CCCC4)nc(F)c3Cl)c3nc4n(c(=O)c23)CCC4)cc(Cl)c1O [I-74, 3-chloro-5-(1-(2-((3-chloro-2-fluoro-6-(pyrrolidin-1-yl)pyridin-4-yl)amino)-2-oxo-ethyl)-4-oxo-4,6,7,8-tetrahydro-1H-dipyrrolo [1,2-a:2′,3′-d]pyrimidin-3-yl)-2-hydroxy-benzamide]
[1]
  pKd: 7.83
[2]; [3]
  pIC50: 6.83
Karpas422 cells; [4]
  pEC50: 6.68

## C[C@H]1CN(CC2CC2)CCN1c1cc(NC(=O)Cn2cc(-c3cc(C(N)=O)c(O)c(F)c3F)c3c(=O)n4c(nc32)CCC4)c(Cl)cn1 [I-6, (S)-5-(1-(2-((5-chloro-2-(4-(cyclopropylmethyl)-2-methylpiperazin-1-yl)pyridin-4-yl)amino)-2-oxoethyl)-4-oxo-4,6,7,8-tetrahydro-1H-dipyrrolo[1,2-a:2′,3′-d]pyrimidin-3-yl)-3,4-difluoro-2-hydroxy-benzamide]
[1]
  pKd: 7.59
[2]; [3]
  pIC50: 6.51
Karpas422 cells; [4]
  pEC50: 6.00

## C[C@H]1CN(C2COC2)CCN1c1cc(NC(=O)Cn2cc(-c3cc(C(N)=O)c(O)c(Cl)c3F)c3c(=O)n4c(nc32)CCC4)c(Cl)c(F)n1 [I-26, (S)-3-chloro-5-(1-(2-((3-chloro-2-fluoro-6-(2-methyl-4-(oxetan-3-yl)piperazin-1-yl)pyridin-4-yl)amino)-2-oxoethyl)-4-oxo-4,6,7,8-tetrahydro-1H-dipyrrolo[1,2-a:2′,3′-d]pyrimidin-3-yl)-4-fluoro-2-hydroxy-benzamide]
[1]
  pKd: 7.52
[2]; [3]
  pIC50: 6.23
Karpas422 cells; [4]
  pEC50: 6.26

## C[C@H]1CN(C)CCN1c1cc(NC(=O)Cn2cc(-c3cc(Cl)c(O)c(C(N)=O)c3)c3c(=O)n4c(nc32)CCC4)c(Cl)c(F)n1 [I-61, (S)-3-chloro-5-(1-(2-((3-chloro-6-(2,4-dimethylpiperazin-1-yl)-2-fluoropyridin-4-yl)amino)-2-oxoethyl)-4-oxo-4,6,7,8-tetrahydro-1H-dipyrrolo[1,2-a:2′,3′-d]pyrimidin-3-yl)-2-hydroxybenzamide]
[1]
  pKd: 8.43
[2]; [3]
  pIC50: 7.38
Karpas422 cells; [4]
  pEC50: 7.65

## C[C@H]1CN(CC(F)F)CCN1c1cc(NC(=O)Cn2cc(-c3cc(C(N)=O)c(O)c(F)c3F)c3c(=O)n4c(nc32)CCC4)c(Cl)c(F)n1 [I-48, (S)-5-(1-(2-((3-chloro-6-(4-(2,2-difluoroethyl)-2-methylpiperazin-1-yl)-2-fluoropyridin-4-yl)amino)-2-oxoethyl)-4-oxo-4,6,7,8-tetrahydro-1H-dipyrrolo[1,2-a:2′,3′-d]pyrimidin-3-yl)-3,4-difluoro-2-hydroxy-benzamide]
[1]
  pKd: 7.86
[2]; [3]
  pIC50: 7.02
Karpas422 cells; [4]
  pEC50: 7.19

## C[C@H]1CN(C2COC2)CCN1c1cc(NC(=O)Cn2cc(-c3cc(C(N)=O)c(O)c(F)c3F)c3c(=O)n4c(nc32)CCC4)c(Cl)c(F)n1 [I-20, (S)-5-(1-(2-((3-chloro-2-fluoro-6-(2-methyl-4-(oxetan-3-yl)piperazin-1-yl)pyridin-4-yl)amino)-2-oxoethyl)-4-oxo-4,6,7,8-tetrahydro-1H-dipyrrolo[1,2-a:2′,3′-d]pyrimidin-3-yl)-3,4-difluoro-2-hydroxy-benzamide]
[1]
  pKd: 8.40
[2]; [3]
  pIC50: 7.21
Karpas422 cells; [4]
  pEC50: 7.24

## C[C@H]1CN(C)CCN1c1cc(NC(=O)Cn2cc(-c3cc(C(N)=O)c(O)c(Cl)c3F)c3c(=O)n4c(nc32)CCC4)c(Cl)cn1 [I-12, (S)-3-chloro-5-(1-(2-((5-chloro-2-(2,4-dimethyl-piperazin-1-yl)pyridin-4-yl)amino)-2-oxoethyl)-4-oxo-4,6,7,8-tetrahydro-1H-dipyrrolo[1,2-a:2′,3′-d]pyrimidin-3-yl)-4-fluoro-2-hydroxy-benzamide]
[1]
  pKd: 6.95
[2]
  pIC50: 6.00
Karpas422 cells
  pEC50: 5.83

## CN(C)c1cc(NC(=O)Cn2cc(-c3cc(F)c(O)c(C(N)=O)c3)c3c(=O)n4c(nc32)CCC4)c(Cl)c(F)n1 [I-80, 5-(1-(2-((3-chloro-6-(dimethylamino)-2-fluoropyridin-4-yl)amino)-2-oxoethyl)-4-oxo-4,6,7,8-tetrahydro-1H-dipyrrolo[1,2-a:2′,3′-d]pyrimidin-3-yl)-3-fluoro-2-hydroxy-benzamide]
[1]
  pKd: 8.42
[2]; [3]
  pIC50: 7.06
Karpas422 cells; [4]
  pEC50: 7.15

## C[C@H]1CN(C2COC2)CCN1c1cc(NC(=O)Cn2cc(-c3cc(C(N)=O)c(O)c(F)c3F)c3c(=O)n4c(nc32)CCCC4)c(Cl)c(F)n1 [I-44, (S)-5-(1-(2-((3-chloro-2-fluoro-6-(2-methyl-4-(oxetan-3-yl)piperazin-1-yl)pyridin-4-yl)amino)-2-oxo-ethyl)-4-oxo-1,4,6,7,8,9-hexahydropyrido [1,2-a]pyrrolo[2,3-d]pyrimidin-3-yl)-3,4-difluoro-2-hydroxy-benzamide]
[1]
  pKd: 7.60
[2]
  pIC50: 6.98
Karpas422 cells
  pEC50: 6.51

## CCN1CCN(c2cc(NC(=O)Cn3cc(-c4cc(C(N)=O)c(O)c(F)c4F)c4c(=O)n5c(nc43)CCCC5)c(Cl)c(F)n2)[C@@H](C)C1 [I-43, (S)-5-(1-(2-((3-chloro-6-(4-ethyl-2-methyl-piperazin-1-yl)-2-fluoropyridin-4-yl)amino)-2-oxoethyl)-4-oxo-1,4,6,7,8,9-hexahydropyrido [1,2-a]pyrrolo[2,3-d]pyrimidin-3-yl)-3,4-difluoro-2-hydroxy-benzamide]
[1]
  pKd: 7.37
[2]; [3]
  pIC50: 6.63
Karpas422 cells; [4]
  pEC50: 6.62
